Numbered stars: 1 amine (or outer) side, 2 acyl side, 3 side chain; on linkers, the order of the positions; unused ones are H or OH. Bridge positions count the residues as written; N and C are the ends. Square brackets hold non-standard residues; d marks the D form. Peptide text beside a SMILES is read from it. * marks the point of attachment. C20 diacid = O=C(O)CCCCCCCCCCCCCCCCCCC(=O)*; γGlu = O=C(O)[C@H](CCC(=O)[*:2])N[*:1]; βAsp = O=C(O)[C@H](CC(=O)[*:2])N[*:1]; Hyp = O=C(O)[C@@H]1C[C@@H](O)CN1; AEEA = NCCOCCOCC(=O)O; Inp = O=C(O)C1CCNCC1
Molecular target: T1, human amylin receptor (Homo sapiens, UniProt O60896+P30988)
T1 construct: host or cells: CHO-K1/Ga15/AMY3 cells, further stably transfected with a CRE-luciferase plasmid
T1 sequence (P30988 25-474): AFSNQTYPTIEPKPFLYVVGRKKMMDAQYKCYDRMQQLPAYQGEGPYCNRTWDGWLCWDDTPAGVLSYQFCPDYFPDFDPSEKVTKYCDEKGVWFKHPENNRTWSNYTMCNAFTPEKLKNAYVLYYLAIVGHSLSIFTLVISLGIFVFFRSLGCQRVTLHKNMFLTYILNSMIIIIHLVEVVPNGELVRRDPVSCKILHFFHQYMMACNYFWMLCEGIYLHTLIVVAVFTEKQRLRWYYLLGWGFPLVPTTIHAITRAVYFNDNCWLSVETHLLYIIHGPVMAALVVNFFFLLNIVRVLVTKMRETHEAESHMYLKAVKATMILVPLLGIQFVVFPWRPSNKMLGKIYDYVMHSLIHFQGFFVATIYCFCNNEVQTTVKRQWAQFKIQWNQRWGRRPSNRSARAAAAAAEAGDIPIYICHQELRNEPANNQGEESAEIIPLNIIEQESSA
T1 sequence (O60896 24-148 partner): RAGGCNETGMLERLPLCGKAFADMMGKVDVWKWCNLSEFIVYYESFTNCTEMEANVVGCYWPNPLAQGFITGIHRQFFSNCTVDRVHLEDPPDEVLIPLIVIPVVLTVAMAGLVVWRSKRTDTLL
Experiment: Luciferase assay of amylin derivatives in amylin receptor/CRE-luc CHO cell line
Format: cell-based
Details: CHO-K1/Ga15/AMY3 CRE-luc cells, 24 hours incubation, F12 medium containing 10% FBS; read-out: EC50
Procedure: The experiment was intended to detect the activity or efficacy of the amylin derivatives on a human amylin receptor in vitro by luciferase assay.
50 μL of growth medium (F12 medium containing 10% FBS) was added into each well of a white 96-well plate, and the stably transfected amylin/CRE-lue CHO cells were inoculated into the white 96-well plate at a density of about 20,000 cells/well for activity determination.

EC50	SMILES
0.016 nM	CC[C@H](C)[C@H](NC(=O)[C@@H]1CCCN1C(=O)[C@H](CCCCN)NC(=O)[C@H](CC(C)C)NC(=O)[C@H](CC(N)=O)NC(=O)[C@H](CC(N)=O)NC(=O)[C@H](CO)NC(=O)[C@H](CO)NC(=O)[C@H](Cc1c[nH]cn1)NC(=O)[C@H](CCCNC(=N)N)NC(=O)[C@H](CC(C)C)NC(=O)[C@H](Cc1ccccc1)NC(=O)[C@H](CC(=O)O)NC(=O)[C@H](C)NC(=O)[C@H](CC(C)C)NC(=O)[C@H](CCCNC(=N)N)NC(=O)[C@H](CCC(N)=O)NC(=O)[C@@H](NC(=O)[C@H](C)NC(=O)[C@@H]1CSSC[C@H](NC(=O)[C@H](CCCCN)NC(=O)C2CCN(C(=O)COCCOCCNC(=O)COCCOCCNC(=O)CCCCCCCCCCCCCCCCCCC(=O)O)CC2)C(=O)N[C@@H](CC(N)=O)C(=O)N[C@@H]([C@@H](C)O)C(=O)N[C@@H](C)C(=O)N[C@@H]([C@@H](C)O)C(=O)N1)[C@@H](C)O)C(=O)N[C@@H](CC(C)C)C(=O)N1CCC[C@H]1C(=O)N1CCC[C@H]1C(=O)N[C@H](C(=O)N[C@@H](CC(N)=O)C(=O)N[C@H](C(=O)NCC(=O)N[C@@H](CO)C(=O)N[C@@H](CC(N)=O)C(=O)N[C@H](C(=O)N1C[C@H](O)C[C@H]1C(N)=O)[C@@H](C)O)C(C)C)[C@@H](C)O [PD180] ({C20 diacid-AEEA-AEEA-Inp}-KCNTATCATQRLADFLRHSSNNLKPILPPTNVGSNT[Hyp]-NH2; disulfide 2-7)
0.034 nM	CC[C@H](C)[C@H](NC(=O)[C@@H]1CCCN1C(=O)[C@H](CCCCN)NC(=O)[C@H](CC(C)C)NC(=O)[C@H](CC(N)=O)NC(=O)[C@H](CC(N)=O)NC(=O)[C@H](CO)NC(=O)[C@H](CO)NC(=O)[C@H](Cc1c[nH]cn1)NC(=O)[C@H](CCCNC(=N)N)NC(=O)[C@H](CC(C)C)NC(=O)[C@H](Cc1ccccc1)NC(=O)[C@H](CC(=O)O)NC(=O)[C@H](C)NC(=O)[C@H](CC(C)C)NC(=O)[C@H](CCCNC(=N)N)NC(=O)[C@H](CCC(N)=O)NC(=O)[C@@H](NC(=O)[C@H](C)NC(=O)[C@@H]1CSSC[C@H](NC(=O)[C@H](CCCCN)NC(=O)[C@H](CC(=O)O)NC(=O)COCCOCCNC(=O)COCCOCCNC(=O)CCCCCCCCCCCCCCCCCCC(=O)O)C(=O)N[C@@H](CC(N)=O)C(=O)N[C@@H]([C@@H](C)O)C(=O)N[C@@H](C)C(=O)N[C@@H]([C@@H](C)O)C(=O)N1)[C@@H](C)O)C(=O)N[C@@H](CC(C)C)C(=O)N1CCC[C@H]1C(=O)N1CCC[C@H]1C(=O)N[C@H](C(=O)N[C@@H](CC(N)=O)C(=O)N[C@H](C(=O)NCC(=O)N[C@@H](CO)C(=O)N[C@@H](CC(N)=O)C(=O)N[C@H](C(=O)N1C[C@H](O)C[C@H]1C(N)=O)[C@@H](C)O)C(C)C)[C@@H](C)O [PD182] ({C20 diacid-AEEA-AEEA}-DKCNTATCATQRLADFLRHSSNNLKPILPPTNVGSNT[Hyp]-NH2; disulfide 3-8)
0.04 nM	CC[C@H](C)[C@H](NC(=O)[C@@H]1CCCN1C(=O)[C@H](CCCCN)NC(=O)[C@H](CC(C)C)NC(=O)[C@H](CC(N)=O)NC(=O)[C@H](CC(N)=O)NC(=O)[C@H](CO)NC(=O)[C@H](CO)NC(=O)[C@H](Cc1c[nH]cn1)NC(=O)[C@H](CCCNC(=N)N)NC(=O)[C@H](CC(C)C)NC(=O)[C@H](Cc1ccccc1)NC(=O)[C@H](CC(=O)O)NC(=O)[C@H](C)NC(=O)[C@H](CC(C)C)NC(=O)[C@H](CCCNC(=N)N)NC(=O)[C@H](CCC(N)=O)NC(=O)[C@@H](NC(=O)[C@H](C)NC(=O)[C@@H]1CSSC[C@H](NC(=O)[C@H](CCCCN)NC(=O)COCCOCCNC(=O)COCCOCCNC(=O)C[C@H](NC(=O)CCCCCCCCCCCCCCCCCCC(=O)O)C(=O)O)C(=O)N[C@@H](CC(N)=O)C(=O)N[C@@H]([C@@H](C)O)C(=O)N[C@@H](C)C(=O)N[C@@H]([C@@H](C)O)C(=O)N1)[C@@H](C)O)C(=O)N[C@@H](CC(C)C)C(=O)N1CCC[C@H]1C(=O)N1CCC[C@H]1C(=O)N[C@H](C(=O)N[C@@H](CC(N)=O)C(=O)N[C@H](C(=O)NCC(=O)N[C@@H](CO)C(=O)N[C@@H](CC(N)=O)C(=O)N[C@H](C(=O)N1C[C@H](O)C[C@H]1C(N)=O)[C@@H](C)O)C(C)C)[C@@H](C)O [PD183] ({C20 diacid-βAsp-AEEA-AEEA}-KCNTATCATQRLADFLRHSSNNLKPILPPTNVGSNT[Hyp]-NH2; disulfide 2-7)
0.037 nM	CC[C@H](C)[C@H](NC(=O)[C@@H]1CCCN1C(=O)[C@H](CCCCN)NC(=O)[C@H](CC(C)C)NC(=O)[C@H](CC(N)=O)NC(=O)[C@H](CC(N)=O)NC(=O)[C@H](CO)NC(=O)[C@H](CO)NC(=O)[C@H](Cc1c[nH]cn1)NC(=O)[C@H](CCCNC(=N)N)NC(=O)[C@H](CC(C)C)NC(=O)[C@H](Cc1ccccc1)NC(=O)[C@H](CC(=O)O)NC(=O)[C@H](C)NC(=O)[C@H](CC(C)C)NC(=O)[C@H](CCCNC(=N)N)NC(=O)[C@H](CCC(N)=O)NC(=O)[C@@H](NC(=O)[C@H](C)NC(=O)[C@@H]1CSSC[C@H](NC(=O)[C@H](CCCCN)NC(=O)C[C@H](NC(=O)COCCOCCNC(=O)COCCOCCNC(=O)CCCCCCCCCCCCCCCCCCC(=O)O)C(=O)O)C(=O)N[C@@H](CC(N)=O)C(=O)N[C@@H]([C@@H](C)O)C(=O)N[C@@H](C)C(=O)N[C@@H]([C@@H](C)O)C(=O)N1)[C@@H](C)O)C(=O)N[C@@H](CC(C)C)C(=O)N1CCC[C@H]1C(=O)N1CCC[C@H]1C(=O)N[C@H](C(=O)N[C@@H](CC(N)=O)C(=O)N[C@H](C(=O)NCC(=O)N[C@@H](CO)C(=O)N[C@@H](CC(N)=O)C(=O)N[C@H](C(=O)N1C[C@H](O)C[C@H]1C(N)=O)[C@@H](C)O)C(C)C)[C@@H](C)O [PD184] ({C20 diacid-AEEA-AEEA-βAsp}-KCNTATCATQRLADFLRHSSNNLKPILPPTNVGSNT[Hyp]-NH2; disulfide 2-7 (inferred))
0.025 nM	CC[C@H](C)[C@H](NC(=O)[C@@H]1CCCN1C(=O)[C@H](CCCCN)NC(=O)[C@H](CC(C)C)NC(=O)[C@H](CC(N)=O)NC(=O)[C@H](CC(N)=O)NC(=O)[C@H](CO)NC(=O)[C@H](CO)NC(=O)[C@H](Cc1c[nH]cn1)NC(=O)[C@H](CCCNC(=N)N)NC(=O)[C@H](CC(C)C)NC(=O)[C@H](Cc1ccccc1)NC(=O)[C@H](CC(=O)O)NC(=O)[C@H](C)NC(=O)[C@H](CC(C)C)NC(=O)[C@H](CCCNC(=N)N)NC(=O)[C@H](CCC(N)=O)NC(=O)[C@@H](NC(=O)[C@H](C)NC(=O)[C@@H]1CSSC[C@H](NC(=O)[C@H](CCCCN)NC(=O)CC[C@H](NC(=O)COCCOCCNC(=O)COCCOCCNC(=O)CCCCCCCCCCCCCCCCCCC(=O)O)C(=O)O)C(=O)N[C@@H](CC(N)=O)C(=O)N[C@@H]([C@@H](C)O)C(=O)N[C@@H](C)C(=O)N[C@@H]([C@@H](C)O)C(=O)N1)[C@@H](C)O)C(=O)N[C@@H](CC(C)C)C(=O)N1CCC[C@H]1C(=O)N1CCC[C@H]1C(=O)N[C@H](C(=O)N[C@@H](CC(N)=O)C(=O)N[C@H](C(=O)NCC(=O)N[C@@H](CO)C(=O)N[C@@H](CC(N)=O)C(=O)N[C@H](C(=O)N1CCC[C@H]1C(N)=O)[C@@H](C)O)C(C)C)[C@@H](C)O [PD188] ({C20 diacid-AEEA-AEEA-γGlu}-KCNTATCATQRLADFLRHSSNNLKPILPPTNVGSNTP-NH2; disulfide 2-7 (inferred))
0.087 nM	CC[C@H](C)[C@H](NC(=O)[C@@H]1CCCN1C(=O)[C@H](CCCCN)NC(=O)[C@H](CC(C)C)NC(=O)[C@H](CC(N)=O)NC(=O)[C@H](CC(N)=O)NC(=O)[C@H](CO)NC(=O)[C@H](CO)NC(=O)[C@H](Cc1c[nH]cn1)NC(=O)[C@H](CCCNC(=N)N)NC(=O)[C@H](CC(C)C)NC(=O)[C@H](Cc1ccccc1)NC(=O)[C@H](CC(=O)O)NC(=O)[C@H](C)NC(=O)[C@H](CC(C)C)NC(=O)[C@H](CCCNC(=N)N)NC(=O)[C@H](CCC(N)=O)NC(=O)[C@@H](NC(=O)[C@H](C)NC(=O)[C@@H]1CSSC[C@H](NC(=O)[C@H](CCCCN)NC(=O)C2CCN(C(=O)COCCOCCNC(=O)COCCOCCNC(=O)CCCCCCCCCCCCCCCCCCC(=O)O)CC2)C(=O)N[C@@H](CC(N)=O)C(=O)N[C@@H]([C@@H](C)O)C(=O)N[C@@H](C)C(=O)N[C@@H]([C@@H](C)O)C(=O)N1)[C@@H](C)O)C(=O)N[C@@H](CC(C)C)C(=O)N1CCC[C@H]1C(=O)N1CCC[C@H]1C(=O)N[C@H](C(=O)N[C@@H](CC(N)=O)C(=O)N[C@H](C(=O)NCC(=O)N[C@@H](CO)C(=O)N[C@@H](CC(N)=O)C(=O)N[C@H](C(=O)N1CCC[C@H]1C(N)=O)[C@@H](C)O)C(C)C)[C@@H](C)O [PD192] ({C20 diacid-AEEA-AEEA-Inp}-KCNTATCATQRLADFLRHSSNNLKPILPPTNVGSNTP-NH2; disulfide 2-7 (inferred))
